# Reference: the supplement of paper PMC10331698
# ± gives the standard deviation of the averaged measurements.
# Tests used:
# Assay in all cases: level (log10 ratio to DMSO vehicle control); higher = higher biomarker level / cell amount than vehicle control
# [1] = compound: C=CC(=O)OCC(F)(F)C(F)(F)C(F)(F)COC(=O)C=C [1H,1H,5H,5H-Perfluoro-1,5-pentanediol diacrylate]; conditions: 6700 nM; in DMSO
# Method: (§1)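 BioMAP Diversity Plus panel of 12 human primary cell co-culture systems (3C, 4H, LPS, SAg, BT, BF4T, BE3C, CASM3C, HDF3CGF, KF3CT, MyoF, Mphg). Compounds were added 1 h before stimulation and left for 24 h (MyoF 48 h; BT 72 h for soluble read-outs or 6 d for IgG). Biomarkers were read by ELISA, cytotoxicity by SRB, PBMC viability and proliferation by Alamar Blue. Each well value was divided by the mean of 8 DMSO control wells on the same plate and log10 transformed; duplicate blinded samples were tested at 4 concentrations.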
# Nonafluoropentanamide = compound: NC(=O)C(F)(F)C(F)(F)C(F)(F)C(F)(F)F [Nonafluoropentanamide]; conditions: in DMSO
# Method: as §1
# Octafluoroadipamide = compound: NC(=O)C(F)(F)C(F)(F)C(F)(F)C(F)(F)C(N)=O [Octafluoroadipamide]; conditions: in DMSO
# Method: as §1
# [2] = compound: FC(F)(F)C(F)(F)C(F)(F)CC1CO1 [1H,1H-Heptafluorobutyl epoxide]; conditions: in DMSO
# Method: as §1
# [3] = compound: COC(=O)C(F)(F)C(F)(F)OC(F)(C(F)(F)F)C(F)(F)OC(F)=C(F)F [Methyl perfluoro(3-(1-ethenyloxypropan-2-yloxy)propanoate)]; conditions: in DMSO
# Method: as §1
# [4] = compound: C=C(C)C(=O)OCCC(F)(F)C(F)(F)C(F)(F)C(F)(F)C(F)(F)C(F)(F)F [6:2 Fluorotelomer methacrylate]; conditions: in DMSO
# Method: as §1
# [5] = compound: FC(F)(F)C(F)(F)C(F)(F)C(F)(F)C(F)(F)C(F)(F)CC1CO1 [3-(Perfluorohexyl)-1,2-epoxypropane]; conditions: in DMSO
# Method: as §1
# [6] = compound: NS(=O)(=O)C(F)(F)C(F)(F)C(F)(F)C(F)(F)C(F)(F)C(F)(F)F [Perfluorohexanesulfonamide]; conditions: in DMSO
# Method: as §1
# [7] = compound: NC(=O)C(F)(F)C(F)(F)C(F)(F)C(F)F; conditions: in DMSO
# Method: as §1
# [8] = compound: O=S(=O)(O)CCC(F)(F)C(F)(F)C(F)(F)C(F)(F)C(F)(F)C(F)(F)F [6:2 Fluorotelomer sulfonic acid]; conditions: in DMSO
# Method: as §1
# [9] = compound: O=S(=O)(O)C(F)(F)C(F)(F)C(F)(F)C(F)(F)C(F)(F)C(F)(F)C(F)(F)C(F)(F)C(F)(F)C(F)(F)F [Sodium perfluorodecanesulfonate]; conditions: in DMSO
# Method: as §1
# [10] = compound: FC(F)(F)C(F)(F)CNCC(F)(F)C(F)(F)F [Bis(1H,1H-perfluoropropyl)amine]; conditions: in DMSO
# Method: as §1
# Heptafluorobutyl iodide = compound: FC(F)(F)C(F)(F)C(F)(F)CI [Heptafluorobutyl iodide]; conditions: in DMSO
# Method: as §1
# [11] = compound: O=S(=O)(Cl)C(F)(F)C(F)(F)C(F)(F)C(F)(F)C(F)(F)C(F)(F)C(F)(F)C(F)(F)F [Perfluoro-1-octanesulfonyl chloride]; conditions: in DMSO
# Method: as §1
# [12] = compound: O=C(O)C(F)(F)C(F)(F)C(F)(F)C(F)(F)C(F)(F)C(F)(F)C(F)(F)C(F)(F)C(F)(F)C(F)F [11-H-Perfluoroundecanoic acid]; conditions: in DMSO
# Method: as §1
# [13] = compound: O=C(O)C=CC(F)(C(F)(F)F)C(F)(F)F [3-(Perfluoroisopropyl)-2-propenoic acid]; conditions: in DMSO
# Method: as §1
# Hexafluoroamylene glycol = compound: OCC(F)(F)C(F)(F)C(F)(F)CO [Hexafluoroamylene glycol]; conditions: in DMSO
# Method: as §1
# [14] = compound: O=S(=O)(F)C(F)(F)C(F)(F)C(F)(F)C(F)(F)C(F)(F)C(F)(F)C(F)(F)C(F)(F)F [Perfluorooctanesulfonyl fluoride]; conditions: in DMSO
# Method: as §1
# [15] = compound: FC(F)(F)C(F)(F)C(F)(F)C(F)(F)C(F)(F)C(F)(F)C(F)(F)I [1-Iodopentadecafluoroheptane]; conditions: in DMSO
# Method: as §1
test system,measurement,setting,value
3C:CD106/VCAM-1,level (log10),[1],-0.179 ± 0.025
same,level (log10),Nonafluoropentanamide; 6700 nM,-0.024 ± 0.028
same,level (log10),Nonafluoropentanamide; 20000 nM,-0.0135 ± 0.039
same,level (log10),Nonafluoropentanamide; 60000 nM,-0.016 ± 0.0071
same,level (log10),Octafluoroadipamide; 6700 nM,-0.0215 ± 0.08
same,level (log10),Octafluoroadipamide; 20000 nM,-0.02 ± 0.055
same,level (log10),Octafluoroadipamide; 60000 nM,0.0005 ± 0.079
same,level (log10),[2]; 6700 nM,-0.0315 ± 0.023
same,level (log10),[2]; 20000 nM,-0.0385 ± 0.013
same,level (log10),[2]; 60000 nM,-0.012 ± 0.011
same,level (log10),[3]; 6700 nM,-0.016 ± 0.0057
same,level (log10),[3]; 20000 nM,-0.0235 ± 0.015
same,level (log10),[4]; 6700 nM,-0.0265 ± 0.026
same,level (log10),[4]; 20000 nM,-0.029 ± 0.037
same,level (log10),[4]; 60000 nM,-0.0185 ± 0.043
same,level (log10),[5]; 6700 nM,-0.0145 ± 0.018
same,level (log10),[5]; 20000 nM,-0.033 ± 0.025
same,level (log10),[5]; 60000 nM,-0.0395 ± 0.011
same,level (log10),[6]; 6700 nM,-0.008 ± 0.0014
same,level (log10),[6]; 20000 nM,-0.0125 ± 0.0092
same,level (log10),[6]; 60000 nM,-0.025 ± 0.016
same,level (log10),[7]; 6700 nM,-0.001 ± 0.024
same,level (log10),[7]; 20000 nM,0.0135 ± 0.0021
same,level (log10),[7]; 60000 nM,0.007 ± 0.016
same,level (log10),[8]; 6700 nM,-0.019 ± 0.0071
same,level (log10),[8]; 20000 nM,-0.035
same,level (log10),[8]; 60000 nM,-0.014 ± 0.013
same,level (log10),[9]; 1500 nM,-0.0035 ± 0.0035
same,level (log10),[9]; 4400 nM,0.0055 ± 0.011
same,level (log10),[9]; 13000 nM,-0.016 ± 0.013
same,level (log10),[9]; 40000 nM,0.0065 ± 0.0078
same,level (log10),[10]; 6700 nM,-0.016 ± 0.027
same,level (log10),[10]; 20000 nM,-0.027 ± 0.037
same,level (log10),[10]; 60000 nM,-0.0025 ± 0.03
same,level (log10),Heptafluorobutyl iodide; 6700 nM,-0.0115 ± 0.00071
same,level (log10),Heptafluorobutyl iodide; 20000 nM,-0.0045 ± 0.028
same,level (log10),Heptafluorobutyl iodide; 60000 nM,-0.0045 ± 0.0078
same,level (log10),[11]; 6700 nM,0.008 ± 0.013
same,level (log10),[11]; 20000 nM,0.028 ± 0.0099
same,level (log10),[11]; 60000 nM,0.0325 ± 0.013
same,level (log10),[12]; 6700 nM,-0.0105 ± 0.023
same,level (log10),[12]; 20000 nM,-0.011 ± 0.0099
same,level (log10),[13]; 6700 nM,-0.002 ± 0.03
same,level (log10),[13]; 20000 nM,-0.039 ± 0.037
same,level (log10),[13]; 60000 nM,-0.0205 ± 0.00071
same,level (log10),Hexafluoroamylene glycol; 6700 nM,-0.0205 ± 0.013
same,level (log10),Hexafluoroamylene glycol; 20000 nM,-0.031 ± 0.011
same,level (log10),Hexafluoroamylene glycol; 60000 nM,-0.0065 ± 0.0092
same,level (log10),[14]; 6700 nM,-0.009 ± 0.0099
same,level (log10),[14]; 20000 nM,-0.003 ± 0.013
same,level (log10),[14]; 60000 nM,-0.01 ± 0.023
same,level (log10),[15]; 6700 nM,-0.0165 ± 0.016
same,level (log10),[15]; 20000 nM,-0.005 ± 0.011
lMphg:sIL-10,level (log10),[1],-0.13 ± 0.035
same,level (log10),Nonafluoropentanamide; 6700 nM,-0.0615 ± 0.044
same,level (log10),Nonafluoropentanamide; 20000 nM,-0.0475 ± 0.00071
same,level (log10),Nonafluoropentanamide; 60000 nM,0.0505 ± 0.073
same,level (log10),Octafluoroadipamide; 6700 nM,-0.0295 ± 0.021
same,level (log10),Octafluoroadipamide; 20000 nM,-0.012 ± 0.11
same,level (log10),Octafluoroadipamide; 60000 nM,-0.1 ± 0.017
same,level (log10),[2]; 6700 nM,-0.0515 ± 0.022
same,level (log10),[2]; 20000 nM,-0.047 ± 0.031
same,level (log10),[2]; 60000 nM,-0.01 ± 0.011
same,level (log10),[3]; 6700 nM,-0.0355 ± 0.0035
same,level (log10),[3]; 20000 nM,-0.102 ± 0.04
same,level (log10),[4]; 6700 nM,-0.01 ± 0.089
same,level (log10),[4]; 20000 nM,-0.0545 ± 0.035
same,level (log10),[4]; 60000 nM,0.0135 ± 0.0035
same,level (log10),[5]; 6700 nM,-0.0195 ± 0.029
same,level (log10),[5]; 20000 nM,-0.057 ± 0.0085
same,level (log10),[5]; 60000 nM,-0.059 ± 0.051
same,level (log10),[6]; 6700 nM,0 ± 0.0071
same,level (log10),[6]; 20000 nM,-0.142 ± 0.017
same,level (log10),[6]; 60000 nM,-0.5835 ± 0.00071
same,level (log10),[7]; 6700 nM,-0.013 ± 0.023
same,level (log10),[7]; 20000 nM,-0.0715 ± 0.005
same,level (log10),[7]; 60000 nM,-0.021 ± 0.047
same,level (log10),[8]; 6700 nM,-0.025 ± 0.037
same,level (log10),[8]; 20000 nM,-0.015 ± 0.02
same,level (log10),[8]; 60000 nM,-0.049 ± 0.0057
same,level (log10),[9]; 1500 nM,-0.0235 ± 0.00071
same,level (log10),[9]; 4400 nM,-0.122 ± 0.019
same,level (log10),[9]; 13000 nM,-0.0595 ± 0.00071
same,level (log10),[9]; 40000 nM,-0.269 ± 0.06
same,level (log10),[10]; 6700 nM,-0.0755 ± 0.028
same,level (log10),[10]; 20000 nM,0.037 ± 0.024
same,level (log10),[10]; 60000 nM,-0.059 ± 0.034
same,level (log10),Heptafluorobutyl iodide; 6700 nM,-0.0135 ± 0.036
same,level (log10),Heptafluorobutyl iodide; 20000 nM,0.0085 ± 0.013
same,level (log10),Heptafluorobutyl iodide; 60000 nM,-0.03 ± 0.078
same,level (log10),[11]; 6700 nM,0.0345 ± 0.054
same,level (log10),[11]; 20000 nM,-0.071 ± 0.1
same,level (log10),[11]; 60000 nM,-0.341 ± 0.033
same,level (log10),[12]; 6700 nM,-0.0875 ± 0.026
same,level (log10),[12]; 20000 nM,-0.0855 ± 0.0064
same,level (log10),[13]; 6700 nM,-0.055 ± 0.064
same,level (log10),[13]; 20000 nM,-0.048 ± 0.017
same,level (log10),[13]; 60000 nM,-0.082 ± 0.0071
same,level (log10),Hexafluoroamylene glycol; 6700 nM,-0.0035 ± 0.0092
same,level (log10),Hexafluoroamylene glycol; 20000 nM,-0.0155 ± 0.016
same,level (log10),Hexafluoroamylene glycol; 60000 nM,-0.0135 ± 0.0021
same,level (log10),[14]; 6700 nM,-0.0605 ± 0.096
same,level (log10),[14]; 20000 nM,-0.0755 ± 0.11
same,level (log10),[14]; 60000 nM,0.0005 ± 0.063
same,level (log10),[15]; 6700 nM,0.004 ± 0.081
same,level (log10),[15]; 20000 nM,-0.0995 ± 0.021
